In US20100016366A1, “Novel Compounds Active as Muscarinic Receptor Antagonists” (priority 2008, published 2010):

target: T1, human muscarinic M3 receptor (Homo sapiens, UniProt P20309); assay: hM3 competition binding assay (3H-NMS, CHO cell membranes); settings: CHO cell membranes expressing human M3; 3H-NMS at 5×KD, 24 hr at RT; IC50 corrected by Cheng-Prussoff
T1 construct: expressed in transfected cells; host or cells: CHO (CHO-K1) cells
Experimental: Binding Affinity Assessment at the Human Recombinant M3 Muscarinic Receptor
Cell Pellets from CHO (Chinese Hamster Ovary) cells recombinantly expressing the human muscarinic M3 receptor were homogenised in 20 mM HEPES (pH7.4) and centrifuged at 48000×g for 20 min at 4° C. The pellet was re-suspended in buffer and the homogenisation and centrifugation steps repeated. The resulting pellet was re-suspended in 1 ml buffer per 1 ml original packed cell volume and the homogenisation step repeated. Protein estimation was carried out on the suspension and 1 ml aliquots of ˜1 mg/ml frozen at −80° C.
hM3 Competition Binding Assay Protocol
Membranes (5 µg/well) were incubated with ^3H-NMS (at a concentration 5×KD) plus/minus test compound for 24 hr at RT (room temperature) in a 1 ml polystyrene 96-well deep well block. The final assay volume was 200 µl, comprising of: 20 µl plus/minus test compound; 20 µl ^3H-NMS (Perkin Elmer NEN 636) and 160 µl membrane solution. Total Binding was defined with 0.1% DMSO; Non-Specific Binding was defined with 1 µM Atropine. Assay buffer was 20 mM Hepes (pH 7.4).
Once all assay components were added, plates were covered and incubated at room temperature for 24 hrs with shaking. The assay was terminated by rapidly filtering through GF/B Unifilter plates pre-soaked with 0.5% polyethylenimine, using a Packard filtermate harvester, the filter plate was then washed with 3×1 ml 4° C. assay buffer. The filter plates were dried at 45° C. for 1 hour. The bottoms of the filter plates were sealed and 50 µl/well of Microscint ‘0’ added, the top of the plates were sealed with a Topseal. Following 90 mins, the plates were read on an NXT Topcount (1 minute read time per well).
The resulting data was expressed as a percentage of the specific binding (Specific binding=Total binding−Non-Specific Binding). % specific binding versus test compound concentration was plotted to determine an IC50 from a sigmoid curve using an in-house data analysis programme. IC50 values corrected to Ki values by applying the Cheng-Prussoff equation: […]
where IC50 is the concentration of unlabelled drug which inhibits by 50% the specific radioligand binding. [L] is the free radioligand concentrations and KD and Ki are the equilibrium dissociation constants of the radioligand and unlabelled drug respectively.

T1 sequence (P20309 whole entry): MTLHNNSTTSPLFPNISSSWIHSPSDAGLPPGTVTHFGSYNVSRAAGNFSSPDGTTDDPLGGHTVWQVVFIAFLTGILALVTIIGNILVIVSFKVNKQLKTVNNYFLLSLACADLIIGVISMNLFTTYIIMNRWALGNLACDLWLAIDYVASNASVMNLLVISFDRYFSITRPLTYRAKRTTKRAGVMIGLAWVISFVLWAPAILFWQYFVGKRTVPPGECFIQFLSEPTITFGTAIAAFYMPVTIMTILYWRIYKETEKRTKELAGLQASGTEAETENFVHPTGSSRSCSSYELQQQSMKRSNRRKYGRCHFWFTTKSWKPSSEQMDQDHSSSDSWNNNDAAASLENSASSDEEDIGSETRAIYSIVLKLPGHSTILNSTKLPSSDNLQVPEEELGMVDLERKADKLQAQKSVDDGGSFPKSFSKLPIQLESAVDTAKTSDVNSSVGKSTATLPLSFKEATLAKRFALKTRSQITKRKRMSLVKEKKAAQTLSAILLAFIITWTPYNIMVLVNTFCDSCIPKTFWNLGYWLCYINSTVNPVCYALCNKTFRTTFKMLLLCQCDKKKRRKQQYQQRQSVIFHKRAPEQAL

Structure (SMILES)	Ki [nM]
O=C(Nc1ccccc1-c1ccccc1)OC1CCN(CCCCCCCCCN(Cc2cccc(O)c2Cl)Cc2cccc(O)c2Cl)CC1 [Example 39, Biphenyl-2-yl-carbamic acid 1-{9-[bis-(2-chloro-3-hydroxy-benzyl)-amino]-nonyl}-piperidin-4-yl ester]	1.13
CN(CCCCCCCCCN1CCC(OC(=O)Nc2ccccc2-c2ccccc2)CC1)Cc1cccc(F)c1O [Example 40, Biphenyl-2-yl-carbamic acid 1-{9-[(3-fluoro-2-hydroxy-benzyl)-methyl-amino]-nonyl}-piperidin-4-yl ester]	0.638
CN(CCCCCCCCCN1CCC(OC(=O)Nc2ccccc2-c2ccccc2)CC1)Cc1cc(Cl)c(Cl)cc1O [Example 41, Biphenyl-2-yl-carbamic acid 1-{9-[(4,5-dichloro-2-hydroxy-benzyl)-methyl-amino]-nonyl}-piperidin-4-yl ester]	1.3
CN(CCCCCCCCCN1CCC(OC(=O)Nc2ccccc2-c2ccccc2)CC1)Cc1cc(Cl)ccc1O [Example 46, Biphenyl-2-yl-carbamic acid 1-{9-[(5-chloro-2-hydroxy-benzyl)-methyl-amino]-nonyl}-piperidin-4-yl ester]	0.755
CN(CCCCCCCCCN1CCC(OC(=O)Nc2ccccc2-c2ccccc2)CC1)Cc1cc(F)ccc1O [Example 47, Biphenyl-2-yl-carbamic acid 1-{9-[(5-fluoro-2-hydroxy-benzyl)-methyl-amino]-nonyl}-piperidin-4-yl ester]	0.529
CN(CCCCCCCCCN1CCC(OC(=O)Nc2ccccc2-c2ccccc2)CC1)Cc1cc(Cl)cc(Cl)c1O [Example 52, Biphenyl-2-yl-carbamic acid 1-{9-[(3,5-dichloro-2-hydroxy-benzyl)-methyl-amino]-nonyl}-piperidin-4-yl ester]	0.637
CN(CCCCCCCCCN1CCC(OC(=O)Nc2ccccc2-c2ccccc2)CC1)Cc1cc(F)cc(F)c1O [Example 55, Biphenyl-2-yl-carbamic acid 1-{9-[(3,5-difluoro-2-hydroxy-benzyl)-methyl-amino]-nonyl}-piperidin-4-yl ester]	0.417
CN(CCCCCCCCCN1CCC(OC(=O)Nc2ccccc2-c2ccccc2)CC1)C(=O)c1cc(Cl)cc(Cl)c1O [Example 56, Biphenyl-2-yl-carbamic acid 1-{9-[(3,5-dichloro-2-hydroxy-benzoyl)-methyl-amino]-nonyl}-piperidin-4-yl ester]	11.3
CN(CCCCCCCCCN1CCC(OC(=O)Nc2ccccc2-c2ccccc2)CC1)C(=O)c1cccc(Cl)c1O [Example 57, Biphenyl-2-yl-carbamic acid 1-{9-[(3-chloro-2-hydroxy-benzoyl)-methyl-amino]-nonyl}-piperidin-4-yl ester]	0.87
CN(CCCCCCCCCN1CCC(OC(=O)Nc2ccccc2-c2ccccc2)CC1)C(=O)c1ccc(F)c(F)c1O [Example 58, Biphenyl-2-yl-carbamic acid 1-{9-[(3,4-difluoro-2-hydroxy-benzoyl)-methyl-amino]-nonyl}-piperidin-4-yl ester]	1.83
CN(CCCCCCCCCN1CCC(OC(=O)Nc2ccccc2-c2ccccc2)CC1)C(=O)c1cccc(F)c1O [Example 59, Biphenyl-2-yl-carbamic acid 1-{9-[(3-fluoro-2-hydroxy-benzoyl)-methyl-amino]-nonyl}-piperidin-4-yl ester]	1.27
CN(CCCCCCCCCN1CCC(OC(=O)Nc2ccccc2-c2ccccc2)CC1)C(=O)c1ccc(Cl)cc1O [Example 60, Biphenyl-2-yl-carbamic acid 1-{9-[(4-chloro-2-hydroxy-benzoyl)-methyl-amino]-nonyl}-piperidin-4-yl ester]	3.61
CN(CCCCCCCCCN1CCC(OC(=O)Nc2ccccc2-c2ccccc2)CC1)C(=O)c1ccc(F)cc1O [Example 61, Biphenyl-2-yl-carbamic acid 1-{9-[(4-fluoro-2-hydroxy-benzoyl)-methyl-amino]-nonyl}-piperidin-4-yl ester]	0.778
CN(CCCCCCCCCN1CCC(OC(=O)Nc2ccccc2-c2ccccc2)CC1)C(=O)c1ccc(Cl)c(O)c1 [Example 62, Biphenyl-2-yl-carbamic acid 1-{9-[(4-chloro-3-hydroxy-benzoyl)-methyl-amino]-nonyl}-piperidin-4-yl ester]	1.21

The next compounds have a lower Ki than those just listed; values first:

Ki [nM]	Structure (SMILES)
0.233	CN(CCCCCCCCCN1CCC(OC(=O)Nc2ccccc2-c2ccccc2)CC1)Cc1ccc(F)c(O)c1 [Example 42, Biphenyl-2-yl-carbamic acid 1-{9-[(4-fluoro-3-hydroxy-benzyl)-methyl-amino]-nonyl}-piperidin-4-yl ester]
0.295	CN(CCCCCCCCCN1CCC(OC(=O)Nc2ccccc2-c2ccccc2)CC1)Cc1cc(F)c(Cl)cc1O [Example 43, Biphenyl-2-yl-carbamic acid 1-{9-[(4-chloro-5-fluoro-2-hydroxy-benzyl)-methyl-amino]-nonyl}-piperidin-4-yl ester]
0.212	CN(CCCCCCCCCN1CCC(OC(=O)Nc2ccccc2-c2ccccc2)CC1)Cc1ccc(O)c(Cl)c1 [Example 44, Biphenyl-2-yl-carbamic acid 1-{9-[(3-chloro-4-hydroxy-benzyl)-methyl-amino]-nonyl}-piperidin-4-yl ester]
0.212	CN(CCCCCCCCCN1CCC(OC(=O)Nc2ccccc2-c2ccccc2)CC1)Cc1ccc(O)c(F)c1 [Example 45, Biphenyl-2-yl-carbamic acid 1-{9-[(3-fluoro-4-hydroxy-benzyl)-methyl-amino]-nonyl}-piperidin-4-yl ester]
0.182	CN(CCCCCCCCCN1CCC(OC(=O)Nc2ccccc2-c2ccccc2)CC1)Cc1cccc(O)c1Cl [Example 48, Biphenyl-2-yl-carbamic acid 1-{9-[(2-chloro-3-hydroxy-benzyl)-methyl-amino]-nonyl}-piperidin-4-yl ester]
0.285	CN(CCCCCCCCCN1CCC(OC(=O)Nc2ccccc2-c2ccccc2)CC1)Cc1cc(F)cc(Cl)c1O [Example 49, Biphenyl-2-yl-carbamic acid 1-{9-[(3-chloro-5-fluoro-2-hydroxy-benzyl)-methyl-amino]-nonyl}-piperidin-4-yl ester]
0.22	CN(CCCCCCCCCN1CCC(OC(=O)Nc2ccccc2-c2ccccc2)CC1)Cc1cc(Cl)c(O)c(Cl)c1 [Example 50, Biphenyl-2-yl-carbamic acid 1-{9-[(3,5-dichloro-4-hydroxy-benzyl)-methyl-amino]-nonyl}-piperidin-4-yl ester]
0.231	CN(CCCCCCCCCN1CCC(OC(=O)Nc2ccccc2-c2ccccc2)CC1)Cc1cccc(O)c1F [Example 51, Biphenyl-2-yl-carbamic acid 1-{9-[(2-fluoro-3-hydroxy-benzyl)-methyl-amino]-nonyl}-piperidin-4-yl ester]
0.345	CN(CCCCCCCCCN1CCC(OC(=O)Nc2ccccc2-c2ccccc2)CC1)Cc1cc(F)c(O)c(F)c1 [Example 53, Biphenyl-2-yl-carbamic acid 1-{9-[(3,5-difluoro-4-hydroxy-benzyl)-methyl-amino]-nonyl}-piperidin-4-yl ester]
0.233	CN(CCCCCCCCCN1CCC(OC(=O)Nc2ccccc2-c2ccccc2)CC1)Cc1ccc(Cl)c(O)c1Cl [Example 54, Biphenyl-2-yl-carbamic acid 1-{9-[(2,4-dichloro-3-hydroxy-benzyl)-methyl-amino]-nonyl}-piperidin-4-yl ester]
